Test: Human HepG2 cell viability assay in 384 well format
Assay type: toxicity, cell-based
Parameters: dose 125 nL, time 70.5 hour; cytotoxicity at 70.5 h: concentration not given beside the values
Conditions: HepG2 cells, read-out: Inhibition

Structure (SMILES) | cytotoxicity at 70.5 h [%]
Cc1ncncc1C(=O)N1CCCN(Cc2cnn(C(C)C)c2)CC1 | 8.58
COc1c(C2CCCN2C(=O)c2cnn(C)c2C2CC2)c(C)nn1C (stereo not given) | -2.81
COc1c(C2CCCN2C(=O)c2sccc2C#N)c(C)nn1C (stereo not given) | -5.44
O=C(NCCCOCC1CCCO1)c1cccnc1N1CCOCC1 (stereo not given) | 36.7
CC(C)CCC(=O)N1CCCC1c1nnc2n1CCCCC2 (stereo not given) | -6.64
CCN(CC)C(CNS(=O)(=O)c1ccc(C(C)=O)cc1)c1ccco1 (stereo not given) | -3.55
CCN(CC)C(CNC(=O)c1ccc(S(=O)(=O)NC)cc1)c1ccco1 (stereo not given) | 0.103
NC(=O)c1ccc(CN2CCC(N3CCCCC3)CC2)cc1 | -1.57
Cc1cc(C)n(CC2CN(Cc3ccc(C(N)=O)cc3)CCO2)n1 (stereo not given) | -4.76
CCCC1CCCN(C(=O)Nc2ccc(F)c(C(N)=O)c2)CC1 (stereo not given) | -1.9
c1nc(N2CCOC(Cn3cncn3)C2)c2sccc2n1 (stereo not given) | 29
CN1CCC(NC(=O)CC2CN(Cc3ccccc3)CCO2)CC1 (stereo not given) | -5.42
Cc1cnn(CC2CCCCN2C(=O)Cn2nc(C)c(Cl)c2C)c1 (stereo not given) | -4.01
CNc1cc(N2CCCC2CNCc2cccc(C(N)=O)c2)ncn1 (stereo not given) | -2.53
Cc1noc(Cl)c1CC(=O)N1CCCC1Cn1cccn1 (stereo not given) | 2.85
Cc1cc(C)n(C2CCCN(C(=O)c3cccc(F)c3F)C2)n1 (stereo not given) | 38.7
CNc1cc(N2CCCC2CNCc2cccnc2)ncn1 (stereo not given) | 4.98
Cc1cc(C)n(C2CCCN(C(=O)c3ccc(N(C)C)nn3)C2)n1 (stereo not given) | -4.23
CNc1cc(N2CCCC2CNCc2cccs2)ncn1 (stereo not given) | -1.51
CS(=O)(=O)CCn1ccc(NC(=O)Cc2cccc(Cl)c2)n1 | -0.645

Structure (SMILES) | cytotoxicity at 70.5 h [%]
O=C(CC1CN(Cc2ccccc2)CCO1)NC1CCSCC1 (stereo not given) | 3.03
Cc1nc(C)n(C2CCCN(C(=O)Cc3ccc4c(c3)CCC4)C2)n1 (stereo not given) | -3.72
CC(C)OCCCNC(=O)c1cccnc1N1CCOCC1 | 39.8
CNc1cc(N2CCCC2CNCc2ccco2)ncn1 (stereo not given) | -1.02
Cc1cc(C)n(CC2CN(Cc3cccnc3)CCO2)n1 (stereo not given) | 3.35
CCn1ccnc1CN1CCN(CCc2ccccn2)CC1C (stereo not given) | -3.46
Cc1nn(C)c(C)c1CC(=O)N1CCCC1Cn1cccn1 (stereo not given) | -5
Cc1nc(C)n(C2CCCN(C(=O)CCc3cn(C)nc3C)C2)n1 (stereo not given) | -0.365
Cc1cc(C)n(C2CCCN(C(=O)c3ccc(F)c(F)c3)C2)n1 (stereo not given) | 9.19
CSCCC(=O)N1CCCC1c1nnc2n1CCCCC2 (stereo not given) | -3.4
O=C(CN1CCCC(CO)C1)NCCOc1cccc(Cl)c1 (stereo not given) | 27.5
O=C(NCCSCc1ccc(Br)s1)C1CCCN(C(=O)c2cccs2)C1 (stereo not given) | -8.75
CCCc1nc(C)c(C(=O)NCC2CCN(C3CC3)C2)s1 (stereo not given) | 23.6
Cc1sc2nc(C(F)(F)F)nc(N3CCC(NS(C)(=O)=O)CC3)c2c1C | -5.38
CC(=O)N1CCN(c2nc(C(F)(F)F)nc3sc(C)c(C)c23)CC1 | -9.75
O=C(c1c[nH]c(=O)[nH]1)N1CCc2ccccc21 | -4.03
CC(NCc1cccnc1)c1cc2c(cc1Br)OCCO2 (stereo not given) | -6.12
Cc1ccc(CN2CCOCC2)cc1NC(=O)c1ccsc1 | -9.12
N#Cc1cccc(C(=O)NS(=O)(=O)c2ccc(C#N)c(Cl)c2)c1 | 27.3
COc1ccsc1C(=O)Nc1cc(CN2CCOCC2)ccc1C | 0.784

Structure (SMILES) | cytotoxicity at 70.5 h [%]
Clc1ccc(NCc2nnc(C3CC3)o2)cc1Cl | 24.8
CC(C)(C)c1noc(CNc2ccccc2N2CCC(O)CC2)n1 | -8.28
O=C(NS(=O)(=O)c1ccc(F)cc1)C1CCOc2ccccc21 (stereo not given) | -3.97
FC(F)(F)Sc1ccc(NCc2nnc(C3CC3)o2)cc1 | 1.88
COc1ccnc(NC(=O)c2ccsc2)c1 | -10.1
COCCCN(Cc1ccncc1)C(=O)CSc1ccc(F)cc1 | -5.19
CCOC(C)c1noc(CN2CCN(CC3CCCC3)CC2)n1 (stereo not given) | -6.48
CCOC(C)c1noc(CN2CCN(c3nnc(C)s3)CC2)n1 (stereo not given) | -4.45
O=C(O)[C@H]1CCCN1CCOc1cccc(Cl)c1 | -5.33
CCOC(C)c1noc(CN2CCNCC2)n1 (stereo not given) | 13.6
COC(C)c1noc(CN2CCCNCC2)n1 (stereo not given) | -10
O=C(Cc1cccc(Cl)c1)Nc1cnccc1SCCCO | -6.16
CC(NCCN1CCN(C(=O)C2CCCC2)CC1)c1cnn(C)c1 (stereo not given) | 5.6
Cc1ccc(C)c(CC(=O)Nc2cnccc2SCCCO)c1 | 23.5
C=C(C)CN(CC)S(=O)(=O)c1ccccc1C#N | -7.47
CCN(CC(=O)NC)C(=O)c1cc(-c2cccc(Cl)c2)no1 | -2.85
Cc1cccc(N(C)Cc2nc3c(cnn3C)c(=O)[nH]2)c1C | -10
CCN(Cc1nc2c(cnn2C)c(=O)[nH]1)c1ccccc1C | -11.2
O=C(c1ccc(=O)[nH]n1)N1CCCC1CCc1ccccc1 (stereo not given) | -11.9
CCOC(=O)c1ccc(Nc2ccc(OC)c(N3CCCC3=O)c2)nc1 | -14.4

Source: ChEMBL document CHEMBL3507680, “University of Dundee, Gates Library screen for HepG2 cell viability”
